Measured values: PubChem BioAssay (NCI)
Several values for one entry are separate records, joined by “and”; a condition that tells them apart may be missing. Identical values can stand only once.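 Each compound was tested at five concentrations against cells in 96-well plates for 48 hours. At the GI50, growth is halved. At the TGI there is no net growth.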 Where a SMILES comes first, the peptide text is derived from it. The star is where a group is joined. Boc = CC(C)(C)OC(=O)*; Bn = c1ccc(C*)cc1

How the values were obtained:
Assay in all cases: NCI anticancer screen, dose series, 48 h
EKVX NSCLC = system: EKVX NSCLC
A549 NSCLC = system: A549 NSCLC
SN12C renal = system: SN12C renal
IGROV1 ovarian = system: IGROV1 ovarian
RPMI-8226 leukemia = system: RPMI-8226 leukemia
A498 renal = system: A498 renal
PC-3 prostate = system: PC-3 prostate
SK-MEL-5 melanoma = system: SK-MEL-5 melanoma
KM12 colon = system: KM12 colon
SNB-75 CNS = system: SNB-75 CNS
SK-OV-3 ovarian = system: SK-OV-3 ovarian
UACC-62 melanoma = system: UACC-62 melanoma

Compound	TGI (EKVX NSCLC)	TGI (A549 NSCLC)	TGI (SN12C renal)	TGI (IGROV1 ovarian)	TGI (RPMI-8226 leukemia)	TGI (A498 renal)	TGI (PC-3 prostate)	TGI (SK-MEL-5 melanoma)	TGI (KM12 colon)	TGI (SNB-75 CNS)	TGI (SK-OV-3 ovarian)	TGI (UACC-62 melanoma) [µM]	GI50 (EKVX NSCLC)	GI50 (A549 NSCLC)	GI50 (SN12C renal)	GI50 (RPMI-8226 leukemia)	GI50 (A498 renal)	GI50 (PC-3 prostate)	GI50 (SK-MEL-5 melanoma)	GI50 (SNB-75 CNS)
O=S(=O)(c1cc(Cl)ccc1Cl)N1CCN(c2cccc(Cl)c2)CC1	> 100 µM	> 100 µM	> 100 µM	> 100 µM	> 100 µM	> 100 µM	> 100 µM	> 100 µM	> 100 µM	> 100 µM	–	–	–	–	–	–	–	–	–	–
CC(=O)Oc1ccc2cc(-c3ccc(OC(C)=O)c(OC(C)=O)c3)c(=O)oc2c1	> 100 µM	> 100 µM	> 100 µM	–	> 100 µM	> 100 µM	> 100 µM	–	61.3 µM	–	–	–	–	–	–	–	–	–	–	–
CCNc1nnc(-c2ccccc2Nc2ccccc2-c2nnc(NCC)s2)s1	> 100 µM	> 62 µM	> 49.7 µM	> 100 µM	73.4 µM	91 µM	> 69.4 µM	25.6 µM	37.2 µM	> 87.9 µM	31.3 µM	35.3	–	–	–	–	–	–	–	–
CN(C)c1ccc(/C=C(\NC(=O)c2ccccc2)C(=O)Nc2cccc(C(=O)NCCCO)c2)cc1	> 100 µM	> 100 µM	> 100 µM	> 100 µM	> 100 µM	> 100 µM	> 100 µM	> 100 µM	> 100 µM	> 100 µM	> 100 µM	> 100	–	–	–	–	–	–	–	–
Cc1cc2c(cc1Cl)SC(NNC1=NCCN1)=NS2(=O)=O	> 10 µM	> 10 µM	> 10 µM	> 10 µM	> 10 µM	> 10 µM	> 10 µM	> 10 µM	> 10 µM	> 10 µM	> 10 µM	> 10	–	–	–	–	–	–	–	–
CC(C)Cn1cnc2c(Cl)nc3ccccc3c21	> 100 µM	> 100 µM	> 100 µM	> 100 µM	> 100 µM	> 100 µM	> 100 µM	42.2 µM	> 100 µM	88 µM	> 100 µM	> 100	–	–	–	–	–	–	–	–
CN1CCN(Cc2nc3c(s2)CCc2sccc2-3)CC1	> 100 µM	> 100 µM	> 100 µM	> 100 µM	> 100 µM	83.4 µM	> 100 µM	> 100 µM	> 100 µM	> 100 µM	> 100 µM	57	–	–	–	–	–	–	–	–
CC1=N[C@@](C)(C2CC3C=CC2C3=O)COC1=O (some centres undefined)	> 100 µM	> 100 µM	> 100 µM	> 100 µM	–	> 100 µM	> 100 µM	> 100 µM	> 100 µM	> 100 µM	> 100 µM	> 100	–	–	–	–	–	–	–	–
CC(C(=O)n1ccnc1)N1c2ccccc2Sc2ccccc21 (centres undefined)	> 100 µM	> 100 µM	> 100 µM	> 100 µM	> 100 µM	> 100 µM	> 100 µM	> 100 µM	> 100 µM	> 100 µM	> 100 µM	> 100	–	–	–	–	–	–	–	–
COC(=O)Cn1c(=O)oc2nc(-c3ccccc3)cc(C(F)(F)F)c21	> 100 µM	> 100 µM	> 100 µM	> 100 µM	95.8 µM	> 100 µM	> 100 µM	61.9 µM	> 100 µM	> 100 µM	> 100 µM	> 100	–	–	–	–	–	–	–	–
CS(=O)(=O)O[C@H]1[C@H](O)c2ccccc2[C@@H]1N=[N+]=[N-]	> 100 µM	> 100 µM	> 100 µM	> 100 µM	> 100 µM	> 100 µM	> 100 µM	> 100 µM	> 100 µM	> 100 µM	> 100 µM	> 100	–	–	–	–	–	–	–	–
CCOC(=O)C1(N)CC1	> 100 µM	> 100 µM	> 100 µM	> 100 µM	> 100 µM	> 100 µM	> 100 µM	> 100 µM	> 100 µM	> 100 µM	–	–	–	–	–	–	–	–	–	–
O=C(NCCCN(CCCCN(CCCNC(=O)c1cc(S(=O)(=O)O)cc(O)c1O)C(=O)c1cc(S(=O)(=O)O)cc(O)c1O)C(=O)c1cc(S(=O)(=O)O)cc(O)c1O)c1cc(S(=O)(=O)O)cc(O)c1O	–	> 100 µM	> 100 µM	> 100 µM	–	> 100 µM	> 100 µM	> 100 µM	> 100 µM	> 100 µM	–	> 100	–	–	–	–	–	–	–	–
CN1CC2=C(NC(=S)NC2c2ccccc2Cl)/C(=C/c2ccccc2Cl)C1 (centres undefined)	> 100 µM	> 100 µM	> 100 µM	> 100 µM	–	> 100 µM	> 100 µM	32.3 µM	> 100 µM	23.8 µM	> 100 µM	> 100	–	–	–	–	–	–	–	–
CNC(=O)C(CC(C)C)NC(=O)C(C)NC(=O)C(Cc1ccc(OCc2ccccc2)cc1)NC(=O)C(COCc1ccccc1)NC(=O)OC(C)(C)C (centres undefined) (Boc-S(Bn)Y(Bn)AL-NHMe; configuration not given here)	> 100 µM and 77.9 µM	> 100 µM and 51.4 µM	> 86.4 µM and 42.1 µM	53.9 µM and 63.7 µM	64.4 µM and 27 µM	94 µM and 30.3 µM	58.4 µM and 18.6 µM	> 100 µM and 23.9 µM	> 44.2 µM and 40.3 µM	> 31.6 µM and 22.9 µM	> 60.3 µM and 39.6 µM	> 31.6	> 100 µM and 26.4 µM	> 70.9 µM and 16.9 µM	> 52.3 µM and 18.8 µM	24.8 µM and 4.27 µM	33.7 µM and 12.5 µM	19.2 µM and 2.53 µM	47.9 µM and 11.7 µM	18.9 µM and 9 µM
Cc1ccsc1C(=S)Nc1ccc(Cl)c(/C=N/OC(C)C)c1	> 100 µM	> 100 µM	> 100 µM	> 100 µM	34.1 µM	> 100 µM	> 100 µM	75.4 µM	> 100 µM	> 100 µM	> 100 µM	> 100	–	–	–	–	–	–	–	–
O=[N+]([O-])C(/C=C(\Cl)[N+](=O)[O-])=C(N1CCCCC1)N1CCCCC1	> 100 µM	54 µM	> 100 µM	61.1 µM	> 100 µM	93.3 µM	> 100 µM	46.5 µM	> 100 µM	–	> 100 µM	60.8	–	–	–	–	–	–	–	–
O=C(Nc1cccc(C(=O)NCCCO)c1)/C(=C/c1ccccc1)NC(=O)c1ccccc1	> 100 µM	> 100 µM	> 100 µM	> 100 µM	> 100 µM	> 100 µM	> 100 µM	> 100 µM	> 100 µM	> 100 µM	> 100 µM	> 100	–	–	–	–	–	–	–	–
